Consider five compounds from US9133228B2, “Guanidinyl-substituted polyamides useful for treating human papilloma virus” (Nanovir, LLC, priority 2011, dated 2015).

As a reminder, the IC50 is the midpoint of a concentration-inhibition curve.

The subject of test [1] is HPV31. The test is described as follows: Inhibition of viral replication in cells that maintain HPV31 DNA, viral DNA quantified by real-time PCR. Conditions: cells maintaining HPV31 cultured 72 hours with polyamide; vs DMSO control; highest dose tested 10 μM. The class given is cell-based, Human papilloma virus. An excerpt:
(§1) Table 1a lists a number of exemplary polyamides synthesized in accordance with the present invention. The HPLC/MW values given in Table 1b were obtained using low resolution high pressure liquid chromatography/mass spectrometry (LR HPLC/MS), which provides moderate precision masses of single isotopomers rather than average molecular weights or exact masses. Table 2 presents a summary of measured IC50 values of certain of these polyamides against HPV16, HPV18 and HPV31. The IC50 is the concentration of compound required for 50% inhibition of viral replication in vitro. The polyamides were tested in cells that maintain HPV16, HPV18 or HPV31 DNA. Cells maintaining the selected HPV were cultured for 72 hours in the presence of the polyamide. Viral DNA was then quantified using real-time PCR and compared to vehicle (DMSO)-treated control cultures. […] Table 3 presents a summary of measured IC50 and IC90 values of certain of these polyamides against HPV16, HPV18 and HPV31.
Background: In qPCR the cycle at which signal appears reflects the starting amount.

Test [2] concerns HPV18. The test can be described thus: Inhibition of viral replication in cells that maintain HPV18 DNA, viral DNA quantified by real-time PCR. The format is cell-based, Human papilloma virus. Conditions: cells maintaining HPV18 cultured 72 hours with polyamide; vs DMSO control; highest dose tested 10 μM.
Excerpt: as §1

In test [3] the test system is HPV16. The test is described as follows: Inhibition of viral replication in cells that maintain HPV16 DNA, viral DNA quantified by real-time PCR. The format is cell-based, Human papilloma virus. Conditions: cells maintaining HPV16 cultured 72 hours with polyamide; vs DMSO control; highest dose tested 10 μM.
Excerpt: as §1

The subject of test [4] is sequence of HPV16 (365 bp: 7662-122). The test can be described thus: DNase I footprinting experiment. The format is binding, Human papilloma virus. The note with it: polyamide 2 nM and 5 nM; DNA 200 pM; DMSO and CHAPS; 37° C. for 5-6 hrs. As to the method:
FIG. 9 illustrates a footprinting experiment of NV1087 on a sequence of HPV16 (365 bp: 7662-122). All reactions were carried out in presence of DMSO and CHAPS, and the final DNA concentration was 200 pM. The polyamide concentration varied (2 nM and 5 nM). Reactions were incubated with polyamide at 37° C. for 5-6 hrs.

`CN(CCCN)CCCNC(=O)CCNC(=O)c1cc(NC(=O)CCNC(=O)c2cc(NC(=O)c3cc(NC(=O)c4cc(NC(=O)CCNC(=O)c5cc(NC(=O)c6cc(NC(=O)CCNC(=O)c7cc(NC(=O)CCCNC(=O)c8nc(NC(=O)c9cc(NC(=O)CCNC(=O)c%10cc(NC(=O)c%11cc(NC(=O)CCNC(=O)c%12cc(NC(=O)c%13cc(NC(=O)c%14cc(N=C(N(C)C)N(C)C)cn%14C)cn%13C)cn%12C)cn%11C)cn%10C)cn9C)cn8C)cn7C)cn6C)cn5C)cn4C)cn3C)cn2C)cn1C.O=C(O)C(F)(F)F.O=C(O)C(F)(F)F.O=C(O)C(F)(F)F.O=C(O)C(F)(F)F` [NV1087, TMG-PyPyPyβPyPyβPyIm-γ-PyβPyPyβPyPyPyβPyβ-Ta•4TFA]: the IC50 in test [1] was 16 nM; in test [2] it was 24 nM; in test [3], 31 nM. Moreover, the “protection of DNA from digestion by DNase I (decrease in peak heights)” value in test [4] was “protects the DNA from digestion by DNase I”.
Turning to `CN(CCCN)CCCNC(=O)CCNC(=O)c1cc(NC(=O)CCNC(=O)c2cc(NC(=O)c3cc(NC(=O)c4cc(NC(=O)CCNC(=O)c5cc(NC(=O)c6cc(NC(=O)CCNC(=O)c7cc(NC(=O)[C@H](N)CCNC(=O)c8nc(NC(=O)c9cc(NC(=O)CCNC(=O)c%10cc(NC(=O)c%11cc(NC(=O)CCNC(=O)c%12cc(NC(=O)c%13cc(NC(=O)c%14cc(N=C(N(C)C)N(C)C)cn%14C)cn%13C)cn%12C)cn%11C)cn%10C)cn9C)cn8C)cn7C)cn6C)cn5C)cn4C)cn3C)cn2C)cn1C` [NV1073, TMG-PyPyPyβPyPyβPyIm-γNH2-PyβPyPyβPyPyPyβPyβ-Ta•5TFA], the half-maximal inhibitory concentration (IC50) turned out to be 220 nM in test [1], 405 nM in test [2] and 267 nM in test [3].
The matching figures for `CN(C)CCCNC(=O)CCNC(=O)c1cc(NC(=O)CCNC(=O)c2cc(NC(=O)c3cc(NC(=O)c4cc(NC(=O)CCNC(=O)c5cc(NC(=O)c6cc(NC(=O)CCNC(=O)c7cc(NC(=O)[C@H](N)CCNC(=O)c8nc(NC(=O)c9cc(NC(=O)CCNC(=O)c%10cc(NC(=O)c%11cc(NC(=O)CCNC(=O)c%12cc(NC(=O)c%13cc(NC(=O)c%14cc(N=C(N(C)C)N(C)C)cn%14C)cn%13C)cn%12C)cn%11C)cn%10C)cn9C)cn8C)cn7C)cn6C)cn5C)cn4C)cn3C)cn2C)cn1C` [NV1075, TMG-PyPyPyβPyPyβPyIm-γNH2-PyβPyPyβPyPyPyβPyβ-Dp•4TFA]: 56 nM, 49 nM and 124 nM.
For `CN(C)CCCNC(=O)CCNC(=O)c1cc(NC(=O)c2cc(NC(=O)c3cc(NC(=O)c4cc(NC(=O)CCNC(=O)c5cc(NC(=O)c6cc(NC(=O)CCCNC(=O)c7cc(NC(=O)c8cc(NC(=O)c9cc(NC(=O)CCNC(=O)c%10cc(NC(=O)c%11cc(N=C(N(C)C)N(C)C)cn%11C)cn%10C)cn9C)cn8C)cn7C)cn6C)cn5C)cn4C)cn3C)cn2C)cn1C` [NV1083, TMG-PyPyβPyPyPy-γ-PyPyβPyPyPyPyβ-Dp•2TFA], the IC50 in test [1] is 3080 nM; in test [2], 929 nM; in test [3] it was 2410 nM.
The matching figures for `CN(CCCN)CCCNC(=O)CCNC(=O)c1cc(NC(=O)CCNC(=O)c2cc(NC(=O)c3cc(NC(=O)c4cc(NC(=O)CCNC(=O)c5cc(NC(=O)c6cc(NC(=O)CCNC(=O)c7cc(NC(=O)[C@@H](CCNC(=O)c8nc(NC(=O)c9cc(NC(=O)CCNC(=O)c%10cc(NC(=O)c%11cc(NC(=O)CCNC(=O)c%12cc(NC(=O)c%13cc(NC(=O)c%14cc(N=C(N(C)C)N(C)C)cn%14C)cn%13C)cn%12C)cn%11C)cn%10C)cn9C)cn8C)NC(=O)NCCCN(C)CCCN)cn7C)cn6C)cn5C)cn4C)cn3C)cn2C)cn1C` [NV1072, TMG-PyPyPyβPyPyβPyIm-γNHR′-PyβPyPyβPyPyPyβPyβ-Ta•6TFA]: 96 nM, 216 nM and 109 nM.
